US20230141603A1, “BENZODIAZEPINE DERIVATIVES AS GABA A GAMMA1 PAM” (Hoffmann-La Roche Inc., priority 2021, published 2023)

Legend:
h-GABAA α1β3γ2 = molecular target: T1, h-GABAA α1β3γ2 (Homo sapiens, UniProt P14867+P18507); assay: Radioligand binding assay, [3H]Flumazenil competition, HEK293F membranes; conditions: for γ2/γ1 Selectivity Ratio / LogSel: Table 1; for γ2/γ1 Selectivity Ratio: Ki α1β3γ2 (nM)/Ki α2β2γ1 (nM); for LogSel: Log[Ki α1β3γ2 (nM)/Ki α2β2γ1 (nM)]
T1 construct: expressed in transfected cells; host or cells: HEK293F cells, membranes
Summary of the method: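 [3H]Flumazenil competition binding on membranes from HEK293F cells transiently expressing human α1β3γ2 receptors. Incubation to equilibrium for 1 h at 4 °C, then filtration and scintillation counting. Ki is the mean of two determinations.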

h-GABAA α2β2γ1 = molecular target: T2, h-GABAA α2β2γ1 (Homo sapiens, UniProt P47869+Q8N1C3); assay: Two-electrode voltage clamp electrophysiology in Xenopus oocytes, modulation of GABA EC20 current; type: cell-based; set-up: host or cells: Xenopus laevis oocytes, RNA micro-injection; conditions: Table 2; for Efficacy (GABA)%: % modulation of GABA EC20 = 100*(Fold increase−1), compound at approx. 30-fold Ki; for Fold increase h-GABA-A α2β2γ1 oocyte @ 30-fold Ki: compound at approx. 30-fold its Ki α2β2γ1, GABA EC20, Xenopus oocytes
T2 sequence (P47869 29-451): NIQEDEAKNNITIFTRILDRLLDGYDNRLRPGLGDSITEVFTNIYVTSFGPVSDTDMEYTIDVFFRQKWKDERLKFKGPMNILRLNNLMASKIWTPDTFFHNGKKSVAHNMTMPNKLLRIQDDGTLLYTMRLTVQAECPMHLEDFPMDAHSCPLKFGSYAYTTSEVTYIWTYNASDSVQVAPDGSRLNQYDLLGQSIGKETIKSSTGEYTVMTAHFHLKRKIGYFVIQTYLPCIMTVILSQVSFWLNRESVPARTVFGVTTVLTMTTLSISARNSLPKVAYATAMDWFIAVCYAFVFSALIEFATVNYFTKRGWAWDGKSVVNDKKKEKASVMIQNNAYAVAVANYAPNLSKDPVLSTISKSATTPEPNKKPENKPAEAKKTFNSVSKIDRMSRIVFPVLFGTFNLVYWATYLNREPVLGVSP
T2 sequence (P47870 25-512 partner limits assumed): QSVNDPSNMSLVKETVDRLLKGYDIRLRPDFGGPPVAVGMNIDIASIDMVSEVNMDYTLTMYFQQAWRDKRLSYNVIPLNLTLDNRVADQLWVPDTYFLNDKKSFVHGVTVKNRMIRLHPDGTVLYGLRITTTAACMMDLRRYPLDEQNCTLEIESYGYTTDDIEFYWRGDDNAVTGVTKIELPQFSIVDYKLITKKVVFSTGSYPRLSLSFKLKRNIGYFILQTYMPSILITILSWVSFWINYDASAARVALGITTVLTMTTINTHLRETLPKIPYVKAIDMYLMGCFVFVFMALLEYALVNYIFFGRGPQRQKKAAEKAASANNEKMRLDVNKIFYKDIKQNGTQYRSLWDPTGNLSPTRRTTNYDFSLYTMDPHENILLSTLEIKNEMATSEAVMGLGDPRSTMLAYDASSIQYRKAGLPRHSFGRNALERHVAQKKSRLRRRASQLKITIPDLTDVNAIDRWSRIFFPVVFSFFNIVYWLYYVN
T2 sequence (Q8N1C3 36-465): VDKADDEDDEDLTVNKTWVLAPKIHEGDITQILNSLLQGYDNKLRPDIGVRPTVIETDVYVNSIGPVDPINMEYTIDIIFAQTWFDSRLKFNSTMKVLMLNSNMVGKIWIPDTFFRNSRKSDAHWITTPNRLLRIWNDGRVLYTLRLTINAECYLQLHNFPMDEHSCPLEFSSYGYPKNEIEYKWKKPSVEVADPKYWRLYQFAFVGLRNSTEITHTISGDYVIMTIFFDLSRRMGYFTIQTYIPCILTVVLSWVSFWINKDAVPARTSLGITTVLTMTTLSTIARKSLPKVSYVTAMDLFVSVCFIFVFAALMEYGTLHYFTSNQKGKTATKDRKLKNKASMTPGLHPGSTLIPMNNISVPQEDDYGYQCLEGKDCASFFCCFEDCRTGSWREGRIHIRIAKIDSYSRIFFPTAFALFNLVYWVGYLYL
Summary of the method: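 Oocytes injected with receptor subunit mRNA were recorded 3–5 days later by two-electrode voltage clamp at −80 mV, room temperature, pH 7.4. Compound was applied during a second GABA EC20 pulse, with at least 3 oocytes per concentration. Efficacy is the ratio-trace extremum, expressed as % modulation of GABA EC20.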

| Structure (SMILES) | Ki (h-GABAA α1β3γ2) [nM] | γ2/γ1 Selectivity Ratio (h-GABAA α1β3γ2) | LogSel (h-GABAA α1β3γ2) | Efficacy (GABA)% (h-GABAA α2β2γ1) [%] | Fold increase h-GABA-A α2β2γ1 oocyte @ 30-fold Ki (h-GABAA α2β2γ1) |
| --- | --- | --- | --- | --- | --- |
| Fc1cccnc1C1=NCc2nncn2-c2ccc(Br)c(Cl)c21 [Example 29, 8-bromo-7-chloro-6-(3-fluoro-2-pyridyl)-4H-[1,2,4]triazolo[4,3-a][1,4]benzodiazepine] | 789 | 16.6 | 1.22 | 105 | 2.05 |
| Fc1cccnc1C1=NCc2nnc(C3CC3)n2-c2ccc(Br)c(Cl)c21 [Example 77, 8-bromo-7-chloro-1-cyclopropyl-6-(3-fluoro-2-pyridyl)-4H-[1,2,4]triazolo[4,3-a][1,4]benzodiazepine] | 716 | 36.6 | 1.56 | 66 | 1.66 |
| OCc1nnc2n1-c1ccc(Br)c(Cl)c1C(c1c(F)cccc1F)=NC2 [Example 33, [8-bromo-7-chloro-6-(2,6-difluorophenyl)-4H-[1,2,4]triazolo[4,3-a][1,4]benzodiazepin-1-yl]methanol] | 232 | 18.2 | 1.26 | 80 | 1.80 |
| Cc1nnc2n1-c1ccc(Br)c(Cl)c1C(c1c(F)cccc1Cl)=NC2 [Example 50, 8-bromo-7-chloro-6-(2-chloro-6-fluoro-phenyl)-1-methyl-4H-[1,2,4]triazolo[4,3-a][1,4]benzodiazepine] | 73.8 | 15.8 | 1.20 | 54 | 1.54 |
| Fc1cccnc1C1=NCc2nnc(-c3cccnn3)n2-c2ccc(Cl)c(Cl)c21 [Example 54, 7,8-dichloro-6-(3-fluoro-2-pyridyl)-1-pyridazin-3-yl-4H-[1,2,4]triazolo[4,3-a][1,4]benzodiazepine] | 2070 | 68.7 | 1.84 | 602 | 7.02 |
| Fc1cccnc1C1=NCc2nnc(-c3ccncn3)n2-c2ccc(Br)c(Cl)c21 [Example 46, 8-bromo-7-chloro-6-(3-fluoro-2-pyridyl)-1-pyrimidin-4-yl-4H-[1,2,4]triazolo[4,3-a][1,4]benzodiazepine] | 1160 | 45.8 | 1.66 | 55 | 1.55 |
